In ChEMBL document CHEMBL2440076, “New triarylpyrazoles as broad-spectrum anticancer agents: design, synthesis, and biological evaluation” (Eur J Med Chem, 2013):

Columns and labels:
[1] = tested on: HOP-62; assay: Growth inhibition of human HOP62 cells assessed as cell growth at 10 uM after 48 hrs by sulforhodamine B assay; assay type: functional; conditions: HOP-62, 48 h, read-out: Activity
[2] = tested on: OVCAR-5; assay: Growth inhibition of human OVCAR5 cells after 48 hrs by sulforhodamine B assay; assay type: functional; conditions: OVCAR-5, 48 h
[3] = tested on: BT-549; assay: Growth inhibition of human BT549 cells assessed as cell growth at 10 uM after 48 hrs by sulforhodamine B assay; assay type: functional; conditions: BT-549, 48 h, read-out: Activity
[4] = tested on: NCI-H23; assay: Growth inhibition of human NCI-H23 cells assessed as cell growth at 10 uM after 48 hrs by sulforhodamine B assay; assay type: functional; conditions: NCI-H23, 48 h, read-out: Activity
[5] = tested on: HL-60(TB); assay: Growth inhibition of human HL-60(TB) cells assessed as cell growth at 10 uM after 48 hrs by sulforhodamine B assay; assay type: functional; conditions: HL-60, 48 h, read-out: Activity
[6] = tested on: HOP-92; assay: Growth inhibition of human HOP92 cells assessed as cell growth at 10 uM after 48 hrs by sulforhodamine B assay; assay type: functional; conditions: HOP-92, 48 h, read-out: Activity
[7] = tested on: HOP-62; assay: Growth inhibition of human HOP62 cells after 48 hrs by sulforhodamine B assay; assay type: functional; conditions: HOP-62, 48 h; for CC50: read-out: LC50 (the source's name)
[8] = tested on: MDA-MB-231; assay: Growth inhibition of human MDA-MB-231 cells after 48 hrs by sulforhodamine B assay; assay type: functional; conditions: MDA-MB-231, 48 h
[9] = tested on: K562; assay: Growth inhibition of human K562 cells after 48 hrs by sulforhodamine B assay; assay type: functional; conditions: K562, 48 h; for CC50: read-out: LC50 (the source's name)
[10] = tested on: NCI-H322M; assay: Growth inhibition of human NCI-H322M cells assessed as cell growth at 10 uM after 48 hrs by sulforhodamine B assay; assay type: functional; conditions: read-out: Activity
[11] = Growth inhibition of human HCC2998 cells after 48 hrs by sulforhodamine B assay; assay type: functional; conditions: HCC 2998, 48 h; for CC50: read-out: LC50 (the source's name)
[12] = tested on: COLO 205; assay: Growth inhibition of human COLO205 cells assessed as cell growth at 10 uM after 48 hrs by sulforhodamine B assay; assay type: functional; conditions: COLO 205, 48 h, read-out: Activity
[13] = tested on: PC-3; assay: Growth inhibition of human PC3 cells assessed as cell growth at 10 uM after 48 hrs by sulforhodamine B assay; assay type: functional; conditions: PC-3, 48 h, read-out: Activity
[14] = tested on: SF-268; assay: Growth inhibition of human SF268 cells after 48 hrs by sulforhodamine B assay; assay type: functional; conditions: SF-268, 48 h; for CC50: read-out: LC50 (the source's name)
[15] = tested on: MDA-MB-435; assay: Growth inhibition of human MDA-MB-435 cells assessed as cell growth at 10 uM after 48 hrs by sulforhodamine B assay; assay type: functional; conditions: MDA-MB-435, 48 h, read-out: Activity
[16] = tested on: SK-MEL-28; assay: Growth inhibition of human SK-MEL-28 cells after 48 hrs by sulforhodamine B assay; assay type: functional; conditions: SK-MEL-28, 48 h
[17] = tested on: NCI-H226; assay: Growth inhibition of human NCI-H226 cells after 48 hrs by sulforhodamine B assay; assay type: functional; conditions: NCI-H226, 48 h; for CC50: read-out: LC50 (the source's name)
[18] = tested on: SF-295; assay: Growth inhibition of human SF295 cells after 48 hrs by sulforhodamine B assay; assay type: functional, cell-based; conditions: SF-295, 48 h; for CC50: read-out: LC50 (the source's name)
[19] = tested on: MOLT-4; assay: Growth inhibition of human MOLT4 cells after 48 hrs by sulforhodamine B assay; assay type: functional; conditions: MOLT-4, 48 h; for CC50: read-out: LC50 (the source's name)
[20] = tested on: Malme-3M; assay: Growth inhibition of human MALME-3M cells after 48 hrs by sulforhodamine B assay; assay type: functional
[21] = tested on: CAKI-1; assay: Growth inhibition of human CAKI-1 cells assessed as cell growth at 10 uM after 48 hrs by sulforhodamine B assay; assay type: functional; conditions: CAKI-1, 48 h, read-out: Activity
[22] = tested on: LOX IMVI; assay: Growth inhibition of human LOXIMVI cells after 48 hrs by sulforhodamine B assay; assay type: functional
[23] = tested on: UO-31; assay: Growth inhibition of human UO31 cells after 48 hrs by sulforhodamine B assay; assay type: functional; conditions: UO-31, 48 h; for CC50: read-out: LC50 (the source's name)
[24] = Growth inhibition of human NCI-ADR-RES cells assessed as cell growth at 10 uM after 48 hrs by sulforhodamine B assay; assay type: functional; conditions: read-out: Activity
[25] = tested on: MCF7; assay: Growth inhibition of human MCF7 cells after 48 hrs by sulforhodamine B assay; assay type: functional; conditions: MCF7, 48 h
[26] = tested on: LOX IMVI; assay: Growth inhibition of human LOXIMVI cells assessed as cell growth at 10 uM after 48 hrs by sulforhodamine B assay; assay type: functional; conditions: read-out: Activity
[27] = tested on: UACC-62; assay: Growth inhibition of human UACC62 cells after 48 hrs by sulforhodamine B assay; assay type: functional; conditions: UACC-62, 48 h
[28] = tested on: NCI-H522; assay: Growth inhibition of human NCI-H522 cells assessed as cell growth at 10 uM after 48 hrs by sulforhodamine B assay; assay type: functional; conditions: NCI-H522, 48 h, read-out: Activity
[29] = tested on: U-251; assay: Growth inhibition of human U251 cells assessed as cell growth at 10 uM after 48 hrs by sulforhodamine B assay; assay type: functional; conditions: U-251, 48 h, read-out: Activity
[30] = tested on: NCI-H23; assay: Growth inhibition of human NCI-H23 cells after 48 hrs by sulforhodamine B assay; assay type: functional; conditions: NCI-H23, 48 h
[31] = tested on: SK-OV-3; assay: Growth inhibition of human SKOV3 cells assessed as cell growth at 10 uM after 48 hrs by sulforhodamine B assay; assay type: functional; conditions: SK-OV-3, 48 h, read-out: Activity
[32] = tested on: SF-268; assay: Growth inhibition of human SF268 cells assessed as cell growth at 10 uM after 48 hrs by sulforhodamine B assay; assay type: functional; conditions: SF-268, 48 h, read-out: Activity
[33] = tested on: SK-MEL-2; assay: Growth inhibition of human SK-MEL-2 cells after 48 hrs by sulforhodamine B assay; assay type: functional; conditions: SK-MEL-2, 48 h
[34] = tested on: IGROV-1; assay: Growth inhibition of human IGROV1 cells after 48 hrs by sulforhodamine B assay; assay type: functional; conditions: IGROV-1, 48 h

COc1cc(-c2nn(-c3cccc(NC(=O)c4ccc(Cl)c(C(F)(F)F)c4)c3)cc2-c2ccncc2)ccc1Cl
growth at 10 µM [1]: 53%
GI50 [2]: > 32.5 µM
LC50 (concentration killing 50% of cells) [2]: > 32.5 µM
TGI [2]: > 32.5 µM
growth at 10 µM [3]: 49.7%
growth at 10 µM [4]: 58.9%
growth at 10 µM [5]: 3.23%
growth at 10 µM [6]: 22.5%
GI50 [7]: 13.1 µM
TGI [7]: > 32.5 µM
CC50 [7]: > 32.5 µM
GI50 [8]: 1.2 µM
LC50 [8]: > 32.5 µM
TGI [8]: > 32.5 µM
GI50 [9]: 1.61 µM
TGI [9]: > 32.5 µM
CC50 [9]: > 32.5 µM
growth at 10 µM [10]: 84.9%
GI50 [11]: 7.86 µM
TGI [11]: > 32.5 µM
CC50 [11]: > 32.5 µM
growth at 10 µM [12]: 69.4%
growth at 10 µM [13]: 18.6%
GI50 [14]: 4.86 µM
TGI [14]: > 32.5 µM
CC50 [14]: > 32.5 µM
growth at 10 µM [15]: -26.8%
GI50 [16]: 3.08 µM
LC50 [16]: > 32.5 µM
TGI [16]: > 32.5 µM
GI50 [17]: 5.9 µM
TGI [17]: > 32.5 µM
CC50 [17]: > 32.5 µM
GI50 [18]: 1.38 µM
IC50 [18]: 1.38 µM
TGI [18]: 17.3 µM
CC50 [18]: > 32.5 µM
GI50 [19]: 5.24 µM
TGI [19]: > 32.5 µM
CC50 [19]: > 32.5 µM
GI50 [20]: 1.18 µM
LC50 (concentration killing 50% of starting cells) [20]: > 32.5 µM
TGI [20]: 19.7 µM
growth at 10 µM [21]: 61.1%
GI50 [22]: 1.92 µM
LC50 [22]: > 32.5 µM
TGI [22]: > 32.5 µM
GI50 [23]: 0.267 µM
TGI [23]: > 32.5 µM
CC50 [23]: > 32.5 µM
growth at 10 µM [24]: 13.4%
GI50 [25]: 2.24 µM
LC50 [25]: > 32.5 µM
TGI [25]: > 32.5 µM
growth at 10 µM [26]: 32.2%
GI50 [27]: 2.1 µM
LC50 (50% lethal concentration) [27]: > 32.5 µM
TGI [27]: > 32.5 µM
growth at 10 µM [28]: 1.5%
growth at 10 µM [29]: 32.5%
GI50 [30]: 5.39 µM
LC50 [30]: > 32.5 µM
TGI [30]: > 32.5 µM
growth at 10 µM [31]: 64.3%
growth at 10 µM [32]: 46.7%
GI50 [33]: 1.9 µM
LC50 (50% lethal concentration) [33]: > 32.5 µM
TGI [33]: 19.7 µM
GI50 [34]: 2.15 µM
LC50 (concentration killing 50% of cells) [34]: > 32.5 µM
TGI [34]: > 32.5 µM

O=C(Nc1cccc(-n2cc(-c3ccncc3)c(-c3ccc(Cl)c(O)c3)n2)c1)Nc1ccc(Cl)c(C(F)(F)F)c1
growth at 10 µM [1]: -17%
GI50 [2]: 1.57 µM
LC50 (concentration killing 50% of cells) [2]: > 32.5 µM
TGI [2]: 16.2 µM
growth at 10 µM [3]: 1.33%
growth at 10 µM [4]: -25.8%
growth at 10 µM [5]: -11.2%
growth at 10 µM [6]: -30.7%
GI50 [7]: 1.22 µM
TGI [7]: 7.83 µM
CC50 [7]: > 32.5 µM
GI50 [8]: 0.488 µM
LC50 [8]: 11.4 µM
TGI [8]: 1.44 µM
GI50 [9]: 0.921 µM
TGI [9]: > 32.5 µM
CC50 [9]: > 32.5 µM
growth at 10 µM [10]: 24.7%
GI50 [11]: 1.06 µM
TGI [11]: 4.12 µM
CC50 [11]: 20.7 µM
growth at 10 µM [12]: -60.2%
growth at 10 µM [13]: -10.4%
GI50 [14]: 1.06 µM
TGI [14]: 6.98 µM
CC50 [14]: > 32.5 µM
growth at 10 µM [15]: -31.3%
GI50 [16]: 0.978 µM
LC50 [16]: 12.4 µM
TGI [16]: 3.33 µM
GI50 [17]: 1.35 µM
TGI [17]: > 32.5 µM
CC50 [17]: > 32.5 µM
GI50 [18]: 0.74 µM
IC50 [18]: 0.74 µM
TGI [18]: 2.06 µM
CC50 [18]: > 32.5 µM
GI50 [19]: 0.777 µM
TGI [19]: 2.93 µM
CC50 [19]: > 32.5 µM
GI50 [20]: 0.576 µM
LC50 (concentration killing 50% of starting cells) [20]: 9.58 µM
TGI [20]: 1.65 µM
growth at 10 µM [21]: 17.3%
GI50 [22]: 0.554 µM
LC50 [22]: 2.39 µM
TGI [22]: 1.15 µM
GI50 [23]: 0.777 µM
TGI [23]: 3.01 µM
CC50 [23]: > 32.5 µM
growth at 10 µM [24]: -16.9%
GI50 [25]: 0.663 µM
LC50 [25]: > 32.5 µM
TGI [25]: > 32.5 µM
growth at 10 µM [26]: -75.8%
GI50 [27]: 0.627 µM
LC50 (50% lethal concentration) [27]: 3.16 µM
TGI [27]: 1.45 µM
growth at 10 µM [28]: -30%
growth at 10 µM [29]: -70.4%
GI50 [30]: 0.951 µM
LC50 [30]: 26.1 µM
TGI [30]: 3.33 µM
growth at 10 µM [31]: 7.47%
growth at 10 µM [32]: -34.5%
GI50 [33]: 0.798 µM
LC50 (50% lethal concentration) [33]: 5.84 µM
TGI [33]: 1.73 µM
GI50 [34]: 0.715 µM
LC50 (concentration killing 50% of cells) [34]: > 32.5 µM
TGI [34]: 2.22 µM
